This is an account of results in US9920032B2, “Heterocyclic compounds useful as pim kinase inhibitors” (Incyte Corporation, priority 2015, dated 2018).

As usually defined, the IC50 is the concentration that gives 50% inhibition.

Each structure is given as a SMILES string.

Format in all cases: biochemical
One assay has as its target Pim-2 (Homo sapiens (Human), UniProt Q9P1W9). Briefly: Pim-2 kinase assay. The note with it: 1 mM ATP; read-out: PIM2 IC50. The method in brief: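 TR-FRET assay with 1 nM enzyme, 0.05 μM fluorescein-CREBtide and 1 mM ATP in Tris pH 7.5 buffer with MgCl2, DTT, BSA and Tween-20, run 2 h at 25° C. Stopped with EDTA and Tb-labelled anti-CREB pSer133 antibody, then read after 30 min at room temperature.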

Another assay addresses Pim-1 (Homo sapiens (Human), UniProt P11309). Briefly: Pim-1 kinase assay. The note with it: 1 mM ATP; read-out: PIM1 IC50. The method in brief:
(§1)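 Biotin-BAD peptide (0.05 μM) phosphorylated with 1 mM ATP by 2.5 pM Pim-1 or 1.25 pM Pim-3 in Tris pH 7.5/MgCl2/DTT buffer, 1 h at 25° C. EDTA stop; phospho-BAD (Ser112) antibody with streptavidin donor and Protein-A acceptor beads, 1 h dark at room temperature before AlphaScreen-type bead read.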

A further assay concerns the target Pim-3 (Homo sapiens (Human), UniProt Q86V86). Briefly: Pim-3 kinase assay. The conditions noted are these: 1 mM ATP; read-out: PIM3 IC50. The method in brief: as §1

Chain of Pim-2 (Q9P1W9 whole entry): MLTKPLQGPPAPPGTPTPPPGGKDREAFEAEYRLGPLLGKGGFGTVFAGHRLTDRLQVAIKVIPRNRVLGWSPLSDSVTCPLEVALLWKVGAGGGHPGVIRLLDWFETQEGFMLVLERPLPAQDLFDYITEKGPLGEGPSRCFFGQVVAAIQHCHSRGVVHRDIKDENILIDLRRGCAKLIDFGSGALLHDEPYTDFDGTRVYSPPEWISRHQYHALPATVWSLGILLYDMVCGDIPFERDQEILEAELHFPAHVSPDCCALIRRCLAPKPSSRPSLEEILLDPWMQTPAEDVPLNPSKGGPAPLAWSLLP
Chain of Pim-1 (P11309 whole entry): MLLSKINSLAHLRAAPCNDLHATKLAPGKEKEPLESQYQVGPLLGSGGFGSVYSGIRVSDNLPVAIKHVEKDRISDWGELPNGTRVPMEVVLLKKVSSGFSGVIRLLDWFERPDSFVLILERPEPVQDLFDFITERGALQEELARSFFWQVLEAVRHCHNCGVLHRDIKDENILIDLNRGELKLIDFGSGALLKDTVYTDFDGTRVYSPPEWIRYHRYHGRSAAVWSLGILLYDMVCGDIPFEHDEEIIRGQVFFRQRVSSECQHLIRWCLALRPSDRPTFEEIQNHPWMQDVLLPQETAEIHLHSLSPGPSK

For the compound `C[C@@H]1C[C@H](N)C[C@H](c2ccncc2NC(=O)c2ccc(F)c3cc(N(C)c4ccccc4F)cnc23)C1` [Example 97, N-(4-((1R,3S,5S)-3-Amino-5-methylcyclohexyl)pyridin-3-yl)-5-fluoro-3-((2-fluorophenyl)(methyl)amino)quinoline-8-carboxamide], the results for the 50% inhibitory concentration (IC50) at Pim-2, at Pim-1 and at Pim-3 were not above 100 nM, not above 10 nM and not above 10 nM, respectively.

On to `COc1ccncc1N(C)c1cnc2c(C(=O)Nc3cnccc3[C@@H]3C[C@H](C)C[C@H](N)C3)ccc(F)c2c1` [Example 150, N-(4-((1R,3S,5S)-3-Amino-5-methylcyclohexyl)pyridin-3-yl)-5-fluoro-3-((4-methoxypyridin-3-yl)(methyl)amino)quinoline-8-carboxamide], for which the half-inhibitory concentration (IC50) on Pim-2 is not above 100 nM; on Pim-1, not above 10 nM; on Pim-3, not above 10 nM.

With `C[C@@H]1C[C@H](N)C[C@H](c2ccncc2NC(=O)c2ccc(F)c3cc(N4CCc5nn(C)cc5C4)cnc23)C1` [Example 119, N-(4-((1R,3S,5S)-3-Amino-5-methylcyclohexyl)pyridin-3-yl)-5-fluoro-3-(2-methyl-6,7-dihydro-2H-pyrazolo[4,3-c]pyridin-5(4H)-yl)quinoline-8-carboxamide], the half-inhibitory concentration (IC50) is not above 100 nM on Pim-2, not above 10 nM at Pim-1 and not above 10 nM at Pim-3.

With `C[C@@H]1C[C@H](N)C[C@H](c2ccncc2NC(=O)c2ccc(F)c3cc(N4CCc5ccccc54)cnc23)C1` [Example 79, N-(4-((1R,3S,5S)-3-Amino-5-methylcyclohexyl)pyridin-3-yl)-5-fluoro-3-(indolin-1-yl)quinoline-8-carboxamide], the IC50 at Pim-2 was 100 to 1000 nM; at Pim-1 it was not above 10 nM; at Pim-3, not above 10 nM.

For `C[C@@H]1C[C@H](N)C[C@H](c2ccncc2NC(=O)c2ccc(F)c3cc(N4CCC[C@H](C)C4)cnc23)C1` [Example 113, N-(4-((1R,3S,5S)-3-Amino-5-methylcyclohexyl)pyridin-3-yl)-5-fluoro-3-((S)-3-methylpiperidin-1-yl)quinoline-8-carboxamide], the IC50 on Pim-2 was not above 100 nM; on Pim-1, not above 10 nM; at Pim-3 it was not above 10 nM.

With `C[C@@H]1C[C@H](N)C[C@H](c2ccncc2NC(=O)c2ccc(F)c3cc(N4CCOCC4)cnc23)C1` [Example 10, N-{4-[(1R,3S,5S)-3-Amino-5-methylcyclohexyl]pyridin-3-yl}-5-fluoro-3-morpholin-4-ylquinoline-8-carboxamide], the concentration for half-maximal inhibition (IC50) at Pim-2 was 100 to 1000 nM; at Pim-1, not above 10 nM; on Pim-3, not above 10 nM.

For `C[C@@H]1C[C@H](N)C[C@H](c2ccncc2NC(=O)c2ccc(F)c3cc(N4C5CCCC4COC5)cnc23)C1` [Example 106, N-(4-((1R,3S,5S)-3-Amino-5-methylcyclohexyl)pyridin-3-yl)-3-(3-oxa-9-azabicyclo[3.3.1]nonan-9-yl)-5-fluoroquinoline-8-carboxamide], the half-inhibitory concentration (IC50) is not above 100 nM on Pim-2, not above 10 nM at Pim-1 and not above 10 nM on Pim-3.

`C[C@@H]1C[C@H](N)C[C@H](c2ccncc2NC(=O)c2ccc(F)c3cc(-c4ccc(C(F)(F)F)nc4)cnc23)C1` [Example 61, N-(4-((1R,3S,5S)-3-Amino-5-methylcyclohexyl)pyridin-3-yl)-5-fluoro-3-(6-(trifluoromethyl)pyridin-3-yl)quinoline-8-carboxamide]: the 50% inhibitory concentration (IC50) at Pim-2 was 1000 to 10000 nM; at Pim-1, not above 10 nM; at Pim-3 it was 10 to 50 nM.

`CC1CN(c2cnc3c(C(=O)Nc4cnccc4[C@@H]4C[C@H](C)C[C@H](N)C4)ccc(F)c3c2)C(C)CO1` (stereo partly drawn) [Example 35, N-(4-((1R,3S,5S)-3-Amino-5-methylcyclohexyl)pyridin-3-yl)-3-(2,5-dimethylmorpholino)-5-fluoroquinoline-8-carboxamide]: the IC50 on Pim-2 was 1000 to 10000 nM; on Pim-1, not above 10 nM; on Pim-3 it was 10 to 50 nM.

For the compound `C[C@@H]1C[C@H](N)C[C@H](c2ccncc2NC(=O)c2ccc(F)c3cc(N4CC5CCC4C5)cnc23)C1` (stereo partly drawn) [Example 96, N-(4-((1R,3S,5S)-3-Amino-5-methylcyclohexyl)pyridin-3-yl)-3-(2-azabicyclo[2.2.1]heptan-2-yl)-5-fluoroquinoline-8-carboxamide], the half-inhibitory concentration (IC50) is not above 100 nM on Pim-2, not above 10 nM at Pim-1 and not above 10 nM on Pim-3.

Regarding `C[C@@H]1C[C@H](N)C[C@H](c2ccncc2NC(=O)c2ccc(F)c3cc(Nc4ccccc4C#N)cnc23)C1` [Example 129, N-(4-((1R,3S,5S)-3-Amino-5-methylcyclohexyl)pyridin-3-yl)-3-(2-cyanophenylamino)-5-fluoroquinoline-8-carboxamide], the IC50 on Pim-2 was 100 to 1000 nM; on Pim-1, not above 10 nM; on Pim-3, not above 10 nM.

Turning to `COCCO[C@H]1CCN(c2cnc3c(C(=O)Nc4cnccc4[C@@H]4C[C@H](C)C[C@H](N)C4)ccc(F)c3c2)C[C@@H]1F` [Example 163], the IC50 was not above 100 nM at Pim-2, not above 10 nM at Pim-1 and not above 10 nM on Pim-3.

Take `C[C@@H]1C[C@H](N)C[C@H](c2ccncc2NC(=O)c2ccc(F)c3cc(N(C)CC(F)(F)F)cnc23)C1` [Example 21, N-{4-[(1R,3S,5S)-3-Amino-5-methylcyclohexyl]pyridin-3-yl}-5-fluoro-3-[methyl(2,2,2-trifluoroethyl)amino]quinoline-8-carboxamide]: the 50% inhibitory concentration (IC50) was not above 100 nM on Pim-2, not above 10 nM at Pim-1 and not above 10 nM on Pim-3.

With `C[C@@H]1C[C@H](N)C[C@H](c2ccncc2NC(=O)c2ccc(F)c3cc(N4CCOC(CO)C4)cnc23)C1` (stereo partly drawn) [Example 132, N-(4-((1R,3S,5S)-3-Amino-5-methylcyclohexyl)pyridin-3-yl)-5-fluoro-3-(2-(hydroxymethyl)morpholino)quinoline-8-carboxamide], the concentration for half-maximal inhibition (IC50) at Pim-2 was 100 to 1000 nM; on Pim-1, not above 10 nM; at Pim-3, not above 10 nM.

`C[C@@H]1C[C@H](N)C[C@H](c2ccncc2NC(=O)c2ccc(F)c3cc(N4CCCN(S(C)(=O)=O)CC4)cnc23)C1` [Example 124, N-(4-((1R,3S,5S)-3-Amino-5-methylcyclohexyl)pyridin-3-yl)-5-fluoro-3-(4-(methylsulfonyl)-1,4-diazepan-1-yl)quinoline-8-carboxamide]: the IC50 is not above 100 nM on Pim-2, not above 10 nM at Pim-1 and not above 10 nM on Pim-3.

In the case of `C[C@@H]1C[C@H](N)C[C@H](c2ccncc2NC(=O)c2ccc(F)c3cc(N4CCCCC4C(F)F)cnc23)C1` (stereo partly drawn) [Example 58, N-(4-((1R,3S,5S)-3-Amino-5-methylcyclohexyl)pyridin-3-yl)-3-(2-(difluoromethyl)piperidin-1-yl)-5-fluoroquinoline-8-carboxamide], the IC50 was not above 100 nM on Pim-2, not above 10 nM at Pim-1 and not above 10 nM on Pim-3.

As for `COC1CCN(c2cnc3c(C(=O)Nc4cnccc4[C@@H]4C[C@H](C)C[C@H](N)C4)ccc(F)c3c2)CC1` [Example 131, N-(4-((1R,3S,5S)-3-Amino-5-methylcyclohexyl)pyridin-3-yl)-5-fluoro-3-(4-methoxypiperidin-1-yl)quinoline-8-carboxamide], the IC50 was 100 to 1000 nM on Pim-2, not above 10 nM at Pim-1 and not above 10 nM on Pim-3.

In the case of `C[C@@H]1C[C@H](N)C[C@H](c2ccncc2NC(=O)c2ccc(F)c3cc(N4CCOc5cccc(F)c54)cnc23)C1` [Example 120, N-(4-((1R,3S,5S)-3-Amino-5-methylcyclohexyl)pyridin-3-yl)-5-fluoro-3-(5-fluoro-2H-benzo[b][1,4]oxazin-4(3H)-yl)quinoline-8-carboxamide], the half-inhibitory concentration (IC50) is not above 100 nM at Pim-2, not above 10 nM on Pim-1 and not above 10 nM at Pim-3.

In the case of `C[C@@H]1C[C@H](N)C[C@H](c2ccncc2NC(=O)c2ccc(F)c3cc(N(C)c4cnccc4C(F)(F)F)cnc23)C1` [Example 143, N-(4-((1R,3S,5S)-3-Amino-5-methylcyclohexyl)pyridin-3-yl)-5-fluoro-3-(methyl(4-(trifluoromethyl)pyridin-3-yl)amino)quinoline-8-carboxamide], the IC50 on Pim-2 is not above 100 nM; at Pim-1, not above 10 nM; at Pim-3, not above 10 nM.

In the case of `C[C@@H]1C[C@H](N)C[C@H](c2ccncc2NC(=O)c2ccc(F)c3cc(N4CC5(CC(O)C5)C4)cnc23)C1` [Example 103, N-(4-((1R,3S,5S)-3-Amino-5-methylcyclohexyl)pyridin-3-yl)-5-fluoro-3-(6-hydroxy-2-azaspiro[3.3]heptan-2-yl)quinoline-8-carboxamide], the figures for the 50% inhibitory concentration (IC50) on Pim-2, at Pim-1 and on Pim-3 were not above 100 nM, not above 10 nM and not above 10 nM, respectively.

Turning to `C[C@@H]1C[C@H](N)C[C@H](c2ccncc2NC(=O)c2ccc(F)c3cc(N4CC(C)(C)C4)cnc23)C1` [Example 116, N-(4-((1R,3S,5S)-3-Amino-5-methylcyclohexyl)pyridin-3-yl)-3-(3,3-dimethylazetidin-1-yl)-5-fluoroquinoline-8-carboxamide], the IC50 on Pim-2 was not above 100 nM; at Pim-1, not above 10 nM; on Pim-3, not above 10 nM.

As for `C[C@@H]1C[C@H](N)C[C@H](c2ccncc2NC(=O)c2ccc(F)c3cc(-c4cc(F)cc5cccnc45)cnc23)C1` [Example 59, N-(4-((1R,3S,5S)-3-Amino-5-methylcyclohexyl)pyridin-3-yl)-5,6′-difluoro-3,8′-biquinoline-8-carboxamide], the results for the IC50 at Pim-2, at Pim-1 and on Pim-3 were 1000 to 10000 nM, not above 10 nM and 10 to 50 nM, respectively.
